Here are results for 26 compounds from US20060004197A1, “Sulfonamide-based compounds as protein tyrosine kinase inhibitors” (priority 2004, published 2006).

Common to all, as to type: biochemical
One assay addresses Recombinant Csk (Homo sapiens, UniProt P41240). As to the kind of experiment: Csk tyrosine kinase activity, poly E4Y / 32P-ATP phosphorylation assay.
The target of another assay is T1, Recombinant human Src (Homo sapiens, UniProt P12931).
T1 construct: made in house; host or cells: baculovirus-insect cell system
As to the kind of experiment: Src tyrosine kinase activity, poly E4Y / 32P-ATP phosphorylation assay.

The next assay concerns the target FGF receptor (FGFr). As to the kind of experiment: FGFr tyrosine kinase activity, poly E4Y / 32P-ATP phosphorylation assay.
Setting [1] is: Table 3, Formula II compounds, NI = no inhibition at 100 μg/mL.
Setting [2] is: Table 2, Formula I compounds, NI = no inhibition at 100 μg/mL.
The mark [3] stands for this setting: poly E4Y / 32P-ATP, Formula IV compounds.

For orientation: IC50 means the concentration needed to halve the response being measured.

Chain of Recombinant Csk (P41240 whole entry, species assumed): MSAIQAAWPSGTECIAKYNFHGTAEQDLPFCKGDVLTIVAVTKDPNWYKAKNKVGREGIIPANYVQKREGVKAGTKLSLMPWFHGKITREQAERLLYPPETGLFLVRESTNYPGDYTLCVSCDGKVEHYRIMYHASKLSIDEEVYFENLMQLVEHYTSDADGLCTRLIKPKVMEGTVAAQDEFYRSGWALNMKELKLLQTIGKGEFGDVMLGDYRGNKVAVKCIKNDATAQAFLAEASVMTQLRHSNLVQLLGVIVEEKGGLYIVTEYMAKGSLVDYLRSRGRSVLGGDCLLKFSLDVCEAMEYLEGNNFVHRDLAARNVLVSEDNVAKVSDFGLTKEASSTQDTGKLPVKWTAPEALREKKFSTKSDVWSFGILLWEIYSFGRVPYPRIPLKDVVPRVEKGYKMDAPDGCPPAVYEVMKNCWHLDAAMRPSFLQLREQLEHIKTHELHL

On to `Cc1ccc(S(=O)(=O)Nc2ccc(Oc3cccc(C(=O)O)c3)cc2NS(=O)(=O)c2ccc(C)cc2)cc1` [Compound 12x, N-[4-(3-carboxy-phenoxy)-2-(4-toluenesulfonylamino)-phenyl]-4-toluenesulfonamide], for which the figures for the IC50 at Recombinant Csk (setting [1]), on Recombinant human Src (setting [1]) and against FGF receptor (FGFr) (setting [1]) were 72 µM, 9.5 µM and 31 µM, respectively.

Take `Cc1ccc(S(=O)(=O)Nc2cc(SCc3ccccc3Cl)c([N+](=O)[O-])cc2NS(=O)(=O)c2ccc(C)cc2)cc1` [Compound 4r, N-[4-(2-chloro-benzylsulfanyl)-5-nitro-2-(4-toluenesulfonylamino)-phenyl]-4-toluenesulfonamide]: the IC50 turned out to be 4.2 µM at Recombinant Csk (setting [2]), 0.65 µM on Recombinant human Src (setting [2]) and 1.9 µM on FGF receptor (FGFr) (setting [2]).

Take `Cc1ccc(C(=O)Nc2ccc(Sc3ccc(Cl)cc3)cc2NC(=O)c2ccc(C)cc2)cc1` [Compound 52, N-[4-(4-chloro-phenylsulfanyl)-2-(4-toluoylamino)-phenyl]-4-toluamide]: the IC50 is over 205 µM at Recombinant Csk (setting [3]) and 51 µM at Recombinant human Src (setting [3]). Further, the “IC50 (μM) FGFr” value against FGF receptor (FGFr) (setting [3]) is given as “NI (NI = no inhibition at 100 μg/mL)”.

Regarding `Cc1ccc(S(=O)(=O)Nc2cc(Sc3cccc(Cl)c3)c([N+](=O)[O-])cc2NS(=O)(=O)c2ccc(C)cc2)cc1` [Compound 4g, N-[4-(3-chloro-phenylsulfanyl)-5-nitro-2-(4-toluenesulfonylamino)-phenyl]-4-toluenesulfonamide], the figures for the IC50 at Recombinant Csk (setting [2]), at Recombinant human Src (setting [2]) and against FGF receptor (FGFr) (setting [2]) were 9.1 µM, 1.6 µM and 5.8 µM, respectively.

Turning to `Cc1ccc(S(=O)(=O)Nc2cc(Sc3ccccc3)c([N+](=O)[O-])cc2NS(=O)(=O)c2ccc(C)cc2)cc1` [Compound 4o, N-[5-nitro-4-phenylsulfanyl-2-(4-toluenesulfonylamino)-phenyl]-4-toluenesulfonamide], the IC50 came out at 5.7 µM at Recombinant Csk (setting [2]), 1.3 µM at Recombinant human Src (setting [2]) and 1.8 µM against FGF receptor (FGFr) (setting [2]).

Take `COc1ccc(OCc2ccc(OS(=O)(=O)c3ccc(C)cc3)c(OS(=O)(=O)c3ccc(C)cc3)c2)cc1` [Compound 48, [4-(4-methoxy-phenoxymethyl)-2-(4-toluenesulfonyloxy)-phenyl]-4-toluenesulfonate]: the IC50 on Recombinant Csk (setting [3]) is over 180 µM; on Recombinant human Src (setting [3]) it was 102 µM. For the same compound, the “IC50 (μM) FGFr” value against FGF receptor (FGFr) (setting [3]) was “NI (NI = no inhibition at 100 μg/mL)”.

As for `COc1ccc(Oc2ccc(NS(=O)(=O)c3cccc([N+](=O)[O-])c3)c(NS(=O)(=O)c3cccc([N+](=O)[O-])c3)c2)cc1` [Compound 12f, N-[4-(4-methoxy-phenoxy)-2-(3-nitro-benzenesulfonylamino)-phenyl]-3-nitro-benzenesulfonamide], the half-maximal inhibitory concentration (IC50) is over 167 µM at Recombinant Csk (setting [1]), 20 µM at Recombinant human Src (setting [1]) and 35 µM against FGF receptor (FGFr) (setting [1]).

With `COc1ccc(Oc2ccc(NS(=O)(=O)c3ccc(C)cc3)c(OCCCO)c2)cc1` [Compound 63, N-[2-(3-hydroxy-propoxy)-4-(4-methoxy-phenoxy)-phenyl]-4-toluenesulfonamide], the values for the IC50 on Recombinant Csk (setting [3]) and at Recombinant human Src (setting [3]) were over 225 µM and 212 µM, respectively. Further, the “IC50 (μM) FGFr” value against FGF receptor (FGFr) (setting [3]) was “NI (NI = no inhibition at 100 μg/mL)”.

Turning to `COc1ccc(Oc2ccc(NS(=O)(=O)c3ccc(OC)cc3)c(NS(=O)(=O)c3ccc(OC)cc3)c2)cc1` [Compound 12k, N-[2-(4-methoxy-benzenesulfonylamino)-4-(4-methoxy-phenoxy)-phenyl]-4-methoxy-benzenesulfonamide], the results for the IC50 on Recombinant Csk (setting [1]), on Recombinant human Src (setting [1]) and on FGF receptor (FGFr) (setting [1]) were 88 µM, 21 µM and 44 µM, respectively.

As to `COc1ccc(Sc2ccc(NS(=O)(=O)c3ccc(C)cc3)c(NS(=O)(=O)c3ccc(C)cc3)c2)cc1` [Compound 12gg, N-[5-(4-methoxy-phenylsulfanyl)-2-(4-toluenesulfonylamino)-phenyl]-4-toluenesulfonamide], the IC50 on Recombinant Csk (setting [1]) is over 180 µM; on Recombinant human Src (setting [1]), 16 µM; against FGF receptor (FGFr) (setting [1]) it was 17 µM.

For `COc1ccc(Sc2cc(NS(=O)(=O)c3ccc(C)cc3)c(NS(=O)(=O)c3ccc(C)cc3)cc2[N+](=O)[O-])cc1` [Compound 4a, N-[4-(4-methoxy-phenylsulfanyl)-5-nitro-2-(4-toluenesulfonylamino)-phenyl]-4-toluenesulfonamide], the IC50 at Recombinant Csk (setting [2]) was 10.8 µM; at Recombinant human Src (setting [2]), 3.4 µM; on FGF receptor (FGFr) (setting [2]) it was 5.8 µM.

Take `COc1ccc(Oc2ccc(NS(=O)(=O)c3ccc(C)cc3)c(OC)c2)cc1` [Compound 60, N-[2-methoxy-4-(4-methoxy-phenoxy)-phenyl]-4-toluenesulfonamide]: the values for the IC50 on Recombinant Csk (setting [3]) and on Recombinant human Src (setting [3]) were over 250 µM and 129 µM, respectively. The “IC50 (μM) FGFr” value against FGF receptor (FGFr) (setting [3]) is “NI (NI = no inhibition at 100 μg/mL)”.

In the case of `COc1ccc(Oc2ccc(NS(=O)(=O)c3ccc(OC)c(OC)c3)c(NS(=O)(=O)c3ccc(OC)c(OC)c3)c2)cc1` [Compound 12m, N-[2-(3,4-dimethoxy-benzenesulfonylamino)-4-(4-methoxy-phenoxy)-phenyl]-3,4-dimethoxy-benzenesulfonamide], the IC50 was over 159 µM at Recombinant Csk (setting [1]) and 54 µM on Recombinant human Src (setting [1]). The “IC50 (μM) FGFr” value against FGF receptor (FGFr) (setting [1]) was “NI (NI = no inhibition at 100 μg/mL)”.

Take `CCc1ccc(S(=O)(=O)Nc2ccc(Oc3ccc(OC)cc3)cc2NS(=O)(=O)c2ccc(CC)cc2)cc1` [Compound 12a, 4-ethyl-N-[2-(4-ethyl-benzenesulfonylamino)-4-(4-methoxy-phenoxy)-phenyl]-benzenesulfonamide]: the figures for the half-maximal inhibitory concentration (IC50) at Recombinant Csk (setting [1]), at Recombinant human Src (setting [1]) and against FGF receptor (FGFr) (setting [1]) were over 176 µM, 23 µM and 44 µM, respectively.

On to `Cc1ccc(S(=O)(=O)Nc2cc(Sc3cccc(C)c3)c([N+](=O)[O-])cc2NS(=O)(=O)c2ccc(C)cc2)cc1` [Compound 4k, N-[5-nitro-2-(4-toluenesulfonylamino)-4-(m-tolylsulfanyl)-phenyl]-4-toluenesulfonamide], for which the values for the IC50 at Recombinant Csk (setting [2]), at Recombinant human Src (setting [2]) and against FGF receptor (FGFr) (setting [2]) were 9.4 µM, 1.9 µM and 3.1 µM, respectively.

As to `Cc1ccc(S(=O)(=O)Nc2cc(Sc3ccc(O)cc3)c([N+](=O)[O-])cc2NS(=O)(=O)c2ccc(C)cc2)cc1` [Compound 4d, N-[4-(4-hydroxy-phenylsulfanyl)-5-nitro-2-(4-toluenesulfonylamino)-phenyl]-4-toluenesulfonamide], the IC50 stood at 23.9 µM at Recombinant Csk (setting [2]), 5.5 µM at Recombinant human Src (setting [2]) and 23.9 µM at FGF receptor (FGFr) (setting [2]).

`Cc1ccc(S(=O)(=O)Nc2cc(-c3ccccc3)c([N+](=O)[O-])cc2NS(=O)(=O)c2ccc(C)cc2)cc1` [Compound 8, N-[5-nitro-4-phenyl-2-(4-toluenesulfonylamino)-phenyl]-4-toluenesulfonamide]: the IC50 at Recombinant Csk (setting [2]) worked out at 10.4 µM; on Recombinant human Src (setting [2]), 1.7 µM; at FGF receptor (FGFr) (setting [2]), 4.9 µM.

As to `Cc1ccc(S(=O)(=O)Nc2ccc(OCc3ccccc3Cl)cc2NS(=O)(=O)c2ccc(C)cc2)cc1` [Compound 15d, N-[4-(2-chloro-benzyloxy)-2-(4-toluenesulfonylamino)-phenyl]-4-toluenesulfonamide], the values for the half-inhibitory concentration (IC50) at Recombinant Csk (setting [1]), on Recombinant human Src (setting [1]) and against FGF receptor (FGFr) (setting [1]) were 59 µM, 14 µM and 66 µM, respectively.

For `Cc1ccc(S(=O)(=O)Nc2ccc(Oc3ccc(CC(=O)O)cc3)cc2NS(=O)(=O)c2ccc(C)cc2)cc1` [Compound 12aa, {4-[3,4-bis(4-toluenesulfonylamino)-phenoxy]-phenyl}-acetic acid], the concentration for half-maximal inhibition (IC50) came out at 77 µM at Recombinant Csk (setting [1]), 6.7 µM at Recombinant human Src (setting [1]) and 10.6 µM against FGF receptor (FGFr) (setting [1]).

`Cc1ccc(S(=O)(=O)Nc2ccc(-c3ccc(Cl)cc3)cc2NS(=O)(=O)c2ccc(C)cc2)cc1` [Compound 21, N-[4-(4-chloro-phenyl)-2-(4-toluenesulfonylamino)-phenyl]-4-toluenesulfonamide]: the IC50 on Recombinant Csk (setting [1]) was over 190 µM; at Recombinant human Src (setting [1]), 8.6 µM; on FGF receptor (FGFr) (setting [1]), 23 µM.

“N-[4-chloro-2-(4-toluenesulfonylamino)-phenyl]-4-toluenesulfonamide [Compound 6]”: the figures for the IC50 on Recombinant Csk (setting [2]), at Recombinant human Src (setting [2]) and against FGF receptor (FGFr) (setting [2]) were 172 µM, 1060 µM and 20.2 µM, respectively.

`COc1ccc(Oc2ccc(NS(=O)(=O)c3ccc(C)cc3)c(NS(=O)(=O)c3ccc(C)cc3)c2)cc1` [Compound 12p, N-[5-(4-methoxy-phenoxy)-2-(4-toluenesulfonylamino)-phenyl]-4-toluenesulfonamide]: the results for the IC50 on Recombinant Csk (setting [1]), at Recombinant human Src (setting [1]) and against FGF receptor (FGFr) (setting [1]) were over 186 µM, 28 µM and 26 µM, respectively.

On to `Cc1ccc(S(=O)(=O)Nc2ccc(OCC3CCCCC3)cc2NS(=O)(=O)c2ccc(C)cc2)cc1` [Compound 15f, N-[4-cyclohexylmethoxy-2-(4-toluenesulfonylamino)-phenyl]-4-toluenesulfonamide], for which the IC50 at Recombinant Csk (setting [1]) is over 189 µM; on Recombinant human Src (setting [1]) it was 42 µM; on FGF receptor (FGFr) (setting [1]), 91 µM.

Regarding `COc1ccc(Oc2ccc(NS(=O)(=O)c3c(C)cc(C)cc3C)c(NS(=O)(=O)c3c(C)cc(C)cc3C)c2)cc1` [Compound 12q, N-[4-(4-methoxy-phenoxy)-2-(2,4,6-trimethylbenzenesulfonylamino)-phenyl]-2,4,6-trimethylbenzenesulfonamide], the concentration for half-maximal inhibition (IC50) is over 168 µM at Recombinant Csk (setting [1]), 39 µM on Recombinant human Src (setting [1]) and 42 µM at FGF receptor (FGFr) (setting [1]).

Take `Cc1ccc(S(=O)(=O)Nc2ccc(OCc3ccc(Cl)cc3)cc2NS(=O)(=O)c2ccc(C)cc2)cc1` [Compound 15b, N-[4-(4-chloro-benzyloxy)-2-(4-toluenesulfonylamino)-phenyl]-4-toluenesulfonamide]: the IC50 at Recombinant Csk (setting [1]) was over 180 µM; on Recombinant human Src (setting [1]), 14 µM; against FGF receptor (FGFr) (setting [1]), 88 µM.

With `Cc1ccc(S(=O)(=O)Nc2ccc(Sc3ccc(Cl)cc3)cc2NS(=O)(=O)c2ccc(C)cc2)cc1` [Compound 12ff, N-[4-(4-chloro-phenylsulfanyl)-2-(4-toluenesulfonylamino)-phenyl]-4-toluenesulfonamide], the IC50 on Recombinant Csk (setting [1]) is 8.6 µM; on Recombinant human Src (setting [1]), 4 µM; at FGF receptor (FGFr) (setting [1]), 3.6 µM.
